From patent US5216024A, “Cell growth inhibitors and methods of treating cancer and cell proliferative diseases” (Baylor College of Medicine, priority 1988, dated 1993)
Entries after “also recorded” stand apart in the source; their conditions may differ. Like-named read-outs stand apart in the source and are kept apart here.

Experiments:
[1] = tested on: estradiol stimulation of uterine growth (rat uterus); test: Uterotropic assay: block of estradiol stimulation of uterine growth in immature female rats; type: in vivo; conditions: for GROWTH INHIBITION (%): 10 μg compound, block of estradiol stimulation in the rat uterotropic assay; for block of estradiol stimulation of uterine growth (in words): immature rat, FIGS. 14, 15
Procedure: The rat uterus is exquisitively sensitive to estrogen, and this hormone stimulates uterine cellular hypertrophy, hyperplasia and DNA synthesis within 24 hours following a single injection. Estradiol stimulation of nuclear Type II sites is a prerequisite for these responses. This assay includes injecting immature female rats with saline-ethanol vehicle, estradiol-17β and the test compound of interest. Control rats were injected only with saline-ethanol vehicle and estradiol-17β. The rats were sacrificed 24 hours later and the uterine wet and dry weights were determined. The wet and dry weight measurements are well defined biochemical end points of estrogen action and are a direct index of changes in cell proliferation and DNA synthesis.
estradiol stimulation in the rat uterotropic assay.

[2] = biological target: nuclear Type II estrogen binding sites; test: Inhibition assay: [3H]estradiol binding to nuclear Type II sites (uterine nuclei from estrogen-implanted ovariectomized rats); parameters: species or system rat; conditions: for IC50: Table I, read-out: TYPE II INHIBITION: concentration (nM) times 10^-2 to inhibit nuclear Type II binding sites by 50%
Procedure: Tissue was dissected from host animals, weighed, rinsed in saline, and homogenized in 10 mM Tris-1.5 mM EDTA, by approximately four 30-sec bursts in a Sorval Omnimixer with intermittent cooling for about 5 min. This crude homogenate was transferred to a Kontes ground glass homogenizer and further homogenized with intermittent cooling until no tissue aggregates were visible. It was imperative that the homogenate be kept cold, about 4° C. through all homogenization steps. The final homogenate was centrifuged at 800×g for approximately 20 min to obtain the crude nuclear pellet, which was then washed by gentle resuspension in a Dounce homogenizer and then centrifuged at 800×g for approximately 7 min. The final washed nuclear pellet was resuspended in 10 mM Tris-1.5 mM EDTA in a concentration ranging from 5 to 50 mg of fresh tissue equivalents/ml. By the term "fresh tissue equivalent" is meant the amount of material which represents the initial concentration in the fresh uterine tissue.
To assess total and nonspecific binding, aliquots of the nuclear suspension were incubated at 37° C. for 30 min with various concentrations ranging from 2 to 40 nM of [^3 H]estradiol with and without a large molar excess of diethylstilbestrol. The diethylstibestrol concentration ranged from 0.6 to 12.0 μM. Following incubation, the nuclear pellets were resuspended in about 1 ml of 10 mM Tris-1.5 mM EDTA buffer and centrifuged at 800×g for about 7 min. The pellet was extracted with 1 ml of ethanol at about 30° C. for about 30 min, and counted in 4 ml of Liquifluor. Specific binding was determined by substraction of nonspecific binding; i.e., not competable by diethylstilbestrol from the total quantity of [^3 H]estradiol bound. Results were expressed as sites/cell, assuming 8 pg of DNA/cell nucleus and that each binding site binds one molecule of [^3 H]estradiol.
In order to assess the levels of this inhibitor activity in various tissue cytosols and LH-20 column chromatography fractions from these cytosols, the following inhibition assay was used. Uterine nuclei were prepared from estrogen-implanted, adult-ovariectomizedrats. The washed nuclear pellet was diluted to 10 mg of fresh uterine equivalents/ml. At this concentration the effects of the endogenous inhibitor were minimal, and nuclear Type II sites bound maximum quantities of [^3 H]estradiol. Aliquots of these nuclei and the inhibitor sample were incubated at about 4° C. for approximately 60 min in the presence of 40 nM of [^3 H]estradiol with and without 12 μM diethylstilbestrol. Under these conditions, nuclear Type II sites were quantitatively measured without interference from Type I sites. The nuclear pellets were resuspended in 1 ml of 10 mM Tris-1.5 mM EDTA and centrifuged, ethanol extracted, and counted. The results were expressed as the percentage of [^3 H]estradiol bound as compared to the buffer control, or as the percentage of inhibition where 100% bound was 0% inhibition and was equivalent to approximately 45,000 cpm.
Thus, more nuclear Type II sites are measured in dilute than in concentrated nuclei. […] The uterine nuclei were prepared as previously described in Markaverich, B. M. et al., J. Biol. Chem. 258:11663-11671 (1983), the disclosure of which is herein incorporated by reference. Briefly, uterine nuclei after preparation were diluted in 10 mM Tris, 1.5 mM EDTA buffer in final volumes equivalent to 10, 20 or 40 mg fresh uterine equivalents per ml, and assayed for estrogen binding sites by [^3 H]estradiol exchange at 37° C. for 30 minutes. Specific binding was determined by subtraction of non-specific binding, i.e., non-competable with 300-fold excess diethylstilbestrol, from the total quantity of [^3 H]estradiol bound. […] Briefly, acid-precipitated, boiled cytosol from rat uterus, mouse mammary tumor and normal mouse mammary gland was diluted as shown on FIG. 2 and evaluated for inhibitor activity. […]

[3] = tested on: estradiol stimulation of uterine growth (rat uterus); conditions: background statement; cited from earlier work
[4] = tested on: cell growth and proliferation in normal and malignant cells; test: Cell growth / tumor proliferation inhibition (general statement); type: cell-based
[5] = tested on: MCF-7 human breast cancer cells; test: MCF-7 cancer cell assay; type: cell-based; conditions: FIG. 12; 1-10 μg/ml, 6 days
Excerpt: To assay for tumor growth sensitivity the MCF-7 human breast cancer cell line in tissue culture was used. One skilled in the art will recognize that this is an excellent model system to assess the effects of hormones and drugs on human cancer cell growth and proliferation. The MCF-7 cells have both Type I and nuclear Type II estrogen receptor sites and respond in a proliferative fashion to estrogenic hormones. Furthermore, they are inhibited by well-known anti-estrogens such as Tamoxifen. The MCF-7 cells were plated at 5×10^5 cells/dish in 30 mm petri dishes and grown in Dulbecco's Modified Eagles Medium containing about 10% charcoal stripped fetal bovine serum for approximately 48 hours. During this interval, the cells attached to the plastic dishes and then underwent exponential growth with a cell-doubling time of approximately 24 hours. The plated cells were allowed to attach for approximately 48 hours and the medium was replaced ("day zero"). The cells were allowed to grow exponentially for about 6 days. […] On day 6 the cells were harvested, counted on a hemocytometer and DNA content per dish was determined by the Burton assay (Burton, K., Biochem. J. 62:315-323, 1956). Results are expressed as cells/dish or DNA content (μg/dish) at 6 days following treatment. […]

malignant (tumor) cells = test: Metabolism / inactivation by malignant cells; type: in vitro ADME
esterase = test: Stability to esterase cleavage; type: in vitro ADME
[6] = tested on: MCF-7 human breast cancer cells; conditions: general knowledge statement; cited from earlier work
[7] = listed as methyl p-hydroxyphenyllactate

With `COC(=O)C=Cc1ccc(O)c(OC)c1` [methyl 3-(4-hydroxy-3-methoxyphenyl)-2-propenoate] the “GROWTH INHIBITION (%)” value [1] was 56% and the IC50 [2] was 600 nM.
In the case of `CC(=O)[C@H]1CC[C@H]2[C@@H]3CCC4=CC(=O)CC[C@]4(C)[C@H]3CC[C@]12C` [progesterone], the “inhibition of nuclear Type II sites associated with antagonism of uterotropic responses to estrogen” value (“inhibition … to estrogen” below) [3] is given as “associated with antagonism of uterotropic responses to estrogen”.
In the case of `COC(=O)COc1ccc(O)cc1` [methyl (4-hydroxyphenoxy) acetate, methyl (4-hydroxyphenoxy)acetate], the “GROWTH INHIBITION (%)” value [1] is reported as 70% and the IC50 [2] is reported as 80 nM.
With `CCC(=O)CCc1ccc(O)cc1` [1-(4-hydroxyphenyl)-3-pentanone] the “block of estradiol stimulation of uterine growth (in words)” value (from here on “block”) [1] was “antitumor proliferative activity in the uterotropic assay” and the “binding to / inhibition of nuclear Type II sites (in words)” value (“binding to / inhibition” below) [2] was “bind to Type II sites”.
For `COC(=O)C(O)Cc1ccc(O)cc1` (centres unmarked) [methyl 3-(4-hydroxyphenyl)-2-hydroxypropionate], the “GROWTH INHIBITION (%)” value [1] was 90%, the “block” value ([1]; listed as MeHPLA) was “block estrogen stimulation of normal cell growth such as that in the rat uterus” and the “block” value [1, 7] was “block estradiol stimulation of uterine growth in the immature rat”. The “cell growth inhibition / antitumor activity (in words)” value ([4]; listed as MeHPLA) was “cell growth and proliferation are inhibited; also recorded: cell growth and proliferation of non-malignant tissues are slowed down or stopped”, the “inhibition of MCF-7 human breast cancer cells” value [5] was “inhibited MCF-7 breast cancer cells in a similar dose-dependent fashion” and the IC50 [2] was 80 nM. For the same compound, the “fold more effective in inhibiting [3H]estradiol binding to nuclear Type II sites than the free acid (HPLA)” value ([2]; competition analysis, FIGS. 8 and 9, vs HPLA) was “approximately 20 fold”, the “metabolism / inactivation by malignant cells (in words)” value (malignant (tumor) cells; listed as MeHPLA) was “malignant cells metabolize MeHPLA” and the “metabolism / inactivation by malignant cells (in words)” value (malignant (tumor) cells; [7]) was “tumor cells have the ability to inactivate methyl p-hydroxyphenyllactate”.
For `COC(=O)C=Cc1ccc(O)c(O)c1` [methyl 3-(3,4-dihydroxyphenyl)-2-propenoate], the “GROWTH INHIBITION (%)” value [1] was 70% and the IC50 [2] was 100 nM.
For `COc1ccc2c(c1)CCC(c1ccccc1)=C2c1ccc(OCCN2CCCC2)cc1` [nafoxidine], the “inhibition … to estrogen” value [3] is listed as “associated with antagonism of uterotropic responses to estrogen”.
In the case of `CC(=O)CCc1ccc(O)cc1` [1-(4-hydroxyphenyl)-3-butanone], the “stability (in words)” value (esterase) is reported as “not subject to the esterase cleavage; also recorded: more stable”, the “GROWTH INHIBITION (%)” value [1] is reported as 96% and the “block” value [1] is reported as “antitumor proliferative activity in the uterotropic assay; also recorded: blocks estradiol stimulation of uterine growth when injected into immature rats”. The “inhibition in culture and in vivo relative to MeHPLA (in words)” value ([4]; culture and in vivo) was “a better inhibitor in culture and in vivo”, the “binding to / inhibition” value [2] was “bind to Type II sites; also recorded: binds to the nuclear Type II sites with a high affinity” and the IC50 [2] was 200 nM.
In the case of `CCN(CC)CCOc1ccc(C(=C(Cl)c2ccccc2)c2ccccc2)cc1` [clomiphene], the “inhibition … to estrogen” value [3] is given as “associated with antagonism of uterotropic responses to estrogen”.
In the case of `CC/C(=C(\c1ccccc1)c1ccc(OCCN(C)C)cc1)c1ccccc1` [Tamoxifen], the “inhibition of MCF-7 cells by known anti-estrogens” value [6] is listed as “inhibited”.
In the case of `O=C(O)C(O)Cc1ccc(O)cc1` (centres unmarked) [3-(4-hydroxyphenyl)-2-hydroxypropionic acid, reference compound], the “GROWTH INHIBITION (%)” value [1] is reported as 0%, the “block” value ([1]; listed as hydroxyphenyllactic acid) is reported as “higher doses of hydroxyphenyllactic acid showed some partial antagonism; also recorded: but not hydroxyphenyllactic acid” and the “cell growth inhibition / antitumor activity (in words)” value [4] is reported as “inhibits the cell growth much less effectively”. For the same compound, the “inhibition of MCF-7 human breast cancer cells” value [5] was “did not”, the “binding to / inhibition” value [2] was “low binding affinity for nuclear Type II sites” and the IC50 [2] was 8000 nM. For the same compound, the “fold lower affinity for nuclear Type II sites than methyl p-hydroxyphenyllactate” value ([2]; vs MeHPLA) was 20 fold.
In the case of `C[C@@H]1C[C@H]2[C@@H]3CCC4=CC(=O)C=C[C@]4(C)[C@@]3(F)[C@@H](O)C[C@]2(C)[C@@]1(O)C(=O)CO` [dexamethasone], the “inhibition … to estrogen” value [3] is given as “associated with antagonism of uterotropic responses to estrogen”.
